Assays:
[1] = target: purified tubulin and MAP2 (Homo sapiens, UniProt P11137); test: MAP2-induced polymerization of microtubules in vitro (optical density at 345 nm); assay type: biochemical
Description: Purified MAP2 and tubulin are mixed in the presence of GTP at 4° C. in a spectrophotometer cuvette. Polymerization is induced by heating at 37° C. and is followed by the increase in optical density (OD) which indicates the quantity of polymers formed.
This in vitro test measures the effect of molecules on the MAP2-induced polymerization of microtubules. This polymerization occurs when MAP2 proteins and tubulin are mixed at adequate concentrations in the presence of GTP. It is accompanied by an increase in optical density measured at 345 nm for 15 to 30 minutes with a UNICON spectrophotometer thermostated at 37° C. (FIG. 1).
Activity is measured by the increase in optical density at 345 nm of a mixture of purified tubulin and MAP2, incubated at 37° C. in the presence of GTP.

[2] = Pharmacokinetics, GC/MS assay in brain and spinal cord; assay type: in vivo, rat; conditions: rats, 12 mg/kg subcutaneous in sesame oil; 1, 4, 8, 24 hours
Description: FIG. 9: Kinetics of the appearance of 3-methoxy-PREG (43B) in rat brain and spinal cord following subcutaneous injection of 43B (12 mg/kg) in a sesame oil solution.
The pharmacokinetics of the molecules tested in vivo are evaluated using gas chromatography/mass spectrometry (GC/MS) assays.

[3] = tested on: Sprague Dawley rats in the FST; test: Forced swimming test (FST); assay type: in vivo, rat; conditions: 10 mg/kg subcutaneously, 24, 5, 1 h before testing
Text: (A) 3-methoxy-PREG (43B) decreased rat immobility in the FST showing antidepressant activity. Results are expressed as mean±SEM (n=6-14). One-way ANOVA: Treatment (F5, 46: 4.30 P<0.01). ***P<0.001, *P<0.05 vs. water and sesame oil (Fisher LSD test). […] Results are expressed as mean±SEM (n=6-14). One-way ANOVA: Treatment (F5, 46: 3.57 P<0.01). **P<0.01, *P<0.05 vs. water and sesame oil (Fisher LSD test). […] One-way ANOVA: Treatment (F5, 46: 3.57 P<0.01). **P<0.01, *P<0.05 vs. water and sesame oil (Fisher LSD test).
Drugs were administered following the traditional dosing regimen used in the FST consisting of three injections: 24, 5, 1 h before testing.
The FST is currently the most widely used animal model for assessing depression related behavior and antidepressant drug activity in rodents (Cryan et al., Neubiorev. 2005). Rats are placed in an inescapable cylinder of water where they develop an immobile posture believed to reflect a “depressive”-like state. The time rats spend immobile is decreased by drugs exerting antidepressant activity.
Additional behaviors can be detected in the FST; namely, climbing and swimming. It has been shown that swimming behavior is sensitive to SSRIs such as fluoxetine whereas climbing is sensitive to norepinephrine re-uptake inhibitors (NRI) such as desipramine.

[4] = target: Mineralocorticoid Receptor (MR) (Rattus norvegicus, UniProt P22199); test: Radioligand binding assay, MR; conditions: MAP4343 10 μM; 4.5 nM [^3H] D-Aldosterone; Wistar Rat kidney
Description: (§1) Binding affinity of 3-methoxy-PREG (MAP4343) for receptors of steroid hormones was evaluated using radioligand binding assays.

ERβ = ERβ (Homo sapiens, UniProt Q92731); test: Radioligand binding assay, ERβ; conditions: MAP4343 10 μM; 0.5 nM [^3H] Estradiol; Human recombinant Sf9 cells
Description: as §1

MAP2 = test: Western blot of MAP2 in cortex and hippocampus after CCI; assay type: in vivo, rat; conditions: 20 mg/kg, first injection 2 h post-trauma, day 35, injured and non-injured cortex and hippocampus
Description: FIG. 19: MAP-2 expression, 35 days after TBI, in the left-uninjured and right-injured hemispheres (A: cortex and B: hippocampus) of CCI-injured animals, receiving either vehicle (D0) or MAP4343 (D1: 10 mg/kg and D2: 20 mg/kg), 2 h after injury.
(§2) Samples were analyzed by Western-blot at day 35 post-trauma (D35) to evaluate the effects of MAP4343 on: MAP2 (the target of MAP4343 and a modulator of microtubule function), the post-synaptic markers PSD95 and spinophilin, the pre-synaptic marker synaptophysin, and the axonal growth/integrity marker GAP43.
(§3) Western blot was performed on cortex and hippocampus of TBI-injured animals receiving the first injection of MAP4343 (at 10 mg/kg or 20 mg/kg) or vehicle (sesame oil) 2 h after injury.
(§4) The expression level of various neuronal brain markers of plasticity was measured at day 35 post-trauma by western-blots in the cortex and hippocampus of left uninjured and right injured cerebral hemispheres of CCI traumatized animals receiving either vehicle (sesame oil, CCI-D0) or 3-methoxy-PREG (MAP4343) at 10 mg/kg (CCI-D1) or 20 mg/kg (CCI-D2), with first MAP4343 injection 2 h post-trauma.

synaptophysin = test: Western blot of synaptophysin in cortex and hippocampus after CCI; assay type: in vivo, rat; conditions: 20 mg/kg, first injection 2 h post-trauma, day 35, injured hippocampus
Description: FIG. 22: Synaptophysin expression, 35 days after TBI, in the left-uninjured and right-injured hemispheres (A: cortex and B: hippocampus) of CCI-injured animals, receiving either vehicle (D0) or MAP4343 (D1: 10 mg/kg and D2: 20 mg/kg), 2 h after injury.
as §2, §3, §4

[5] = 40 μM, compared to control kinetics with solvent alone

purified tubulin and MAP2, sequence (P11137 whole entry): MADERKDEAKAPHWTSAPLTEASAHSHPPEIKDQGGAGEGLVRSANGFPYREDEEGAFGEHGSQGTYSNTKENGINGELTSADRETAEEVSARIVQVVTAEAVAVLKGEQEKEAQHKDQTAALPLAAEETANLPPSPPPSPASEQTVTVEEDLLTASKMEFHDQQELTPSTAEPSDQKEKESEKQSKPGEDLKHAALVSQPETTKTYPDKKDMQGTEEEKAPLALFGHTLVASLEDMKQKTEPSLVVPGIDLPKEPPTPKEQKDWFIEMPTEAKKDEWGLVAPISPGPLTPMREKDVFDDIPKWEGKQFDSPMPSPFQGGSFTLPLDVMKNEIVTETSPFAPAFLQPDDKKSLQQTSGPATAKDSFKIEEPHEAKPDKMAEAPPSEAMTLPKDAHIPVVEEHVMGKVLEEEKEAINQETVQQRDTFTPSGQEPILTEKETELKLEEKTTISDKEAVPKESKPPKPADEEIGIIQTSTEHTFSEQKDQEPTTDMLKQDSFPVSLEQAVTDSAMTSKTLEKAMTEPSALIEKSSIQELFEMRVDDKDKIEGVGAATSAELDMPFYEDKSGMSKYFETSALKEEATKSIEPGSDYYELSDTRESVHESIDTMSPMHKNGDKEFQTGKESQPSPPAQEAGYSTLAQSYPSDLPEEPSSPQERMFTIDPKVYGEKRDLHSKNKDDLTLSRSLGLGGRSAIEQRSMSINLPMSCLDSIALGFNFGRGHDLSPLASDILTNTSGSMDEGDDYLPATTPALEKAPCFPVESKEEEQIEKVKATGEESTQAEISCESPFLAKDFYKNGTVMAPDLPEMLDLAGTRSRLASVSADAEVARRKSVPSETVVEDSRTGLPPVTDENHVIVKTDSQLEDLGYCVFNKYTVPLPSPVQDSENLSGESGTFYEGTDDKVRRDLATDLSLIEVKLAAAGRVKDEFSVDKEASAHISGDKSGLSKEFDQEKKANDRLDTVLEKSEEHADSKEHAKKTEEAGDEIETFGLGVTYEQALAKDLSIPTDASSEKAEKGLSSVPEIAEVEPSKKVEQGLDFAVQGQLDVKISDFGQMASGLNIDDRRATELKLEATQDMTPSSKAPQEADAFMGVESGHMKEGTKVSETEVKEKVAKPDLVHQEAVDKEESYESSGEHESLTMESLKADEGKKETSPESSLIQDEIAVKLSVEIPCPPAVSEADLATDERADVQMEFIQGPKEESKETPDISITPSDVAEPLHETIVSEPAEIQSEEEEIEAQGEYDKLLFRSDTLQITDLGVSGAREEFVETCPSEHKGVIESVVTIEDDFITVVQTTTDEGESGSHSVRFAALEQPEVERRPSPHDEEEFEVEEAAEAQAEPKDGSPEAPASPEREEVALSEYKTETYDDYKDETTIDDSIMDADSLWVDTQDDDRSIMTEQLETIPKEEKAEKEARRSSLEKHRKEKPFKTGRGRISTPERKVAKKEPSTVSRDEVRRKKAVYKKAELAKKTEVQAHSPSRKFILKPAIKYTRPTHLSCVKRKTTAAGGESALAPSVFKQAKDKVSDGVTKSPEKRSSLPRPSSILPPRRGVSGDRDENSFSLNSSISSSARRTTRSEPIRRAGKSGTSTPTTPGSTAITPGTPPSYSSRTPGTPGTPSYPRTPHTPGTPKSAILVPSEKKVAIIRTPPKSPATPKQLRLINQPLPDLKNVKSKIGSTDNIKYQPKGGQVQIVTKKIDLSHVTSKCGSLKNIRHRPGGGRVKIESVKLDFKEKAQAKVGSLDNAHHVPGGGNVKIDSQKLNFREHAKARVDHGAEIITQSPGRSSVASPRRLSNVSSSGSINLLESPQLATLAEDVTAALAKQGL
Mineralocorticoid Receptor (MR), sequence (P22199 whole entry): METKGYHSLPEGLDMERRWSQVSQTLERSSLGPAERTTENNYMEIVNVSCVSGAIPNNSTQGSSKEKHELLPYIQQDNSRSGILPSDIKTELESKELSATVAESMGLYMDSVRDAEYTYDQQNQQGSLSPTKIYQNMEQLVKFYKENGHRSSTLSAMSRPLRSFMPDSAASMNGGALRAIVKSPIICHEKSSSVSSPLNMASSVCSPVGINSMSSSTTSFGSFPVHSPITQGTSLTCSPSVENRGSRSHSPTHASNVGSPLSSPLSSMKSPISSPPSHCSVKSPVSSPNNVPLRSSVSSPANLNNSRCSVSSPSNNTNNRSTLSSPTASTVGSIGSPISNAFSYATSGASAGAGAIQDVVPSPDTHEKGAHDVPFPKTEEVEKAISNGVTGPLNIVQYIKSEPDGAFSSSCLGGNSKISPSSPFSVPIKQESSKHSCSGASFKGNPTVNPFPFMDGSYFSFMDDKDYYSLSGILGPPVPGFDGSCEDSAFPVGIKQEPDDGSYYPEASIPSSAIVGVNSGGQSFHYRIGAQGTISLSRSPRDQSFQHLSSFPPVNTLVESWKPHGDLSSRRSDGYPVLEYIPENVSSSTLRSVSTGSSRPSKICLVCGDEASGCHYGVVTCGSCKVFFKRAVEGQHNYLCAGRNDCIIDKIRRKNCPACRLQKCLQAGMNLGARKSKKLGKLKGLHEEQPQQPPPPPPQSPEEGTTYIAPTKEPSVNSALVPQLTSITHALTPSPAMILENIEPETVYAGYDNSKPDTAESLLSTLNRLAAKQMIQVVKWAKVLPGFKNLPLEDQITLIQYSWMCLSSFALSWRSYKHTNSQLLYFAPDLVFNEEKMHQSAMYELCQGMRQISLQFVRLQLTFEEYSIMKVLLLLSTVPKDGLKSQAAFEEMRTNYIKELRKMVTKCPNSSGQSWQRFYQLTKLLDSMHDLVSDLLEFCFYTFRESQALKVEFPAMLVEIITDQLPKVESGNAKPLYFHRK
ERβ, sequence (Q92731 whole entry): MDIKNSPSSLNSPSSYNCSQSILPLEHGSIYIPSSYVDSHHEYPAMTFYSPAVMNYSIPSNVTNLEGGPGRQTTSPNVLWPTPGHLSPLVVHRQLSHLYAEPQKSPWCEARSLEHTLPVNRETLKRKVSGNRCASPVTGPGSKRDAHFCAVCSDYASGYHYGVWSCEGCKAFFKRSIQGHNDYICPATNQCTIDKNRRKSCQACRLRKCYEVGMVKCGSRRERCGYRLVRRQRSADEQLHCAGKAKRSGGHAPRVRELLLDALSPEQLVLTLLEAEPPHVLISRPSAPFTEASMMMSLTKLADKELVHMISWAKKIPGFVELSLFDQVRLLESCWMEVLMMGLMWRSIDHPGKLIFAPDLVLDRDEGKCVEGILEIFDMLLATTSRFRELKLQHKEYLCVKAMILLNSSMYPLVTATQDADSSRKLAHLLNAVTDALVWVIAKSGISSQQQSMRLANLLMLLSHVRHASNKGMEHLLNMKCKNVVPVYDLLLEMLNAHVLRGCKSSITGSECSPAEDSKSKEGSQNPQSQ

CO[C@H]1CC[C@@]2(C)C(=CC[C@H]3[C@@H]4CC[C@H](C(C)=O)[C@@]4(C)CC[C@@H]32)C1 [3-methoxy-PREG, 3β-methoxy-pregna-5-ene-20-one]
Lag time of microtubule polymerization [1, 5]: decreased
polymerization rate and quantity of microtubules [1, 5]: clearly increase
effect on microtubule polymerization ([1]; MAP2 and tubulin with GTP, 37° C.): activates microtubule polymerization
Activity (increase in optical density at 345 nm) ([1]; purified tubulin and MAP2, 37° C., GTP): 100% of PREG
penetration into spinal cord and brain [2]: penetrates rapidly into the spinal cord and the brain
rat climbing behavior in the FST [3]: not changed
rat immobility in the FST [3]: significantly decreased
rat swimming in the FST [3]: significantly increased
% inhibition of specific binding [4]: < 25%
% inhibition of specific binding (ERβ): < 25%
MAP-2 expression (MAP2): strong increase
Synaptophysin expression (synaptophysin): increase in Synaptophysin expression

From patent US20140045807A2, “THE USE OF 3-METHOXY-PREGNENOLONE FOR THE PREPARATION OF A DRUG FOR TREATING A TRAUMATIC BRAIN INJURY” (priority 2004, published 2014)
